Experimental data: patent US7396837B2, “Antitumoral analogs of lamellarins” (Pharma Mar, S.A.U., priority 2002, dated 2008)

Columns and labels:
Type in all cases: cell-based
[1] = SRB colorimetric cell growth inhibition assay, H-MEC-1; conditions: human; H-MEC-1; cell killing (cytotoxic effect); read-out: LC50 H-MEC-1
Description: A colorimetric type of assay, using sulforhodamine B (SRB) reaction has been adapted for a quantitative measurement of cell growth and viability (following the technique described by P. A. Skehan, et al., J. Natl. Cancer Inst. 1990, 82, 1107-1112).
This form of assay employs 96 well cell culture microplates of 9 mm diameter (T. Mosmann et al., J. of Immunological Methods 1983, 65, 55-63; G. T. Faircloth et al., J. of Tissue and Culture Methods 1988, 11, 201-205).
Most of the cell lines are obtained from American Type Culture Collection (ATCC) derived from different human cancer types.
The values for mean +/− SD of data from triplicate wells are calculated. Some parameters for cellular responses can be calculated: GI=growth inhibition, TGI=total growth inhibition (cytostatic effect) and LC=cell killing (cytotoxic effect).

PANC-1 = assay: SRB colorimetric cell growth inhibition assay, PANC-1; conditions: Homo sapiens, PANC-1, PANC-1; for GI50: GI=growth inhibition, read-out: GI50 PANC-1; for CC50: cell killing (cytotoxic effect), read-out: LC50 PANC-1; for IC (TGI): total growth inhibition (cytostatic effect), read-out: TGI PANC-1
In short: (§1)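 Growth inhibition (GI), cytostatic total growth inhibition (TGI) and cytotoxic cell-kill (LC) parameters were calculated from SRB-stained cultures held under constant compound exposure, triplicates averaged.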

SK-BR-3 = assay: SRB colorimetric cell growth inhibition assay, SK-BR-3; conditions: Homo sapiens, SK-BR-3, SK-BR-3; for GI50: GI=growth inhibition, read-out: GI50 SK-BR-3; for CC50: LC=cell killing (cytotoxic effect), read-out: LC50 SK-BR-3; for IC (TGI): TGI=total growth inhibition (cytostatic effect), read-out: TGI SK-BR-3
In short: as §1

LNCaP = assay: SRB colorimetric cell growth inhibition assay, LNCaP; conditions: Homo sapiens, LNCaP, LN-caP; for GI50: GI=growth inhibition, read-out: GI50 LN-caP; for CC50: LC=cell killing (cytotoxic effect), read-out: LC50 LN-caP; for IC (TGI): TGI=total growth inhibition (cytostatic effect), read-out: TGI LN-caP
In short: as §1

K-562 = assay: SRB colorimetric cell growth inhibition assay, K-562; conditions: Homo sapiens, K562, K-562; for GI50: GI=growth inhibition, read-out: GI50 K-562; for CC50: cell killing (cytotoxic effect), read-out: LC50 K-562; for IC (TGI): total growth inhibition (cytostatic effect), read-out: TGI K-562
In short: as §1

A-549 = assay: SRB colorimetric cell growth inhibition assay, A-549; conditions: Homo sapiens, A549, A-549; for GI50: GI=growth inhibition, read-out: GI50 A-549; for CC50: cell killing (cytotoxic effect), read-out: LC50 A-549; for IC (TGI): total growth inhibition (cytostatic effect), read-out: TGI A-549
In short: as §1

DU-145 = assay: SRB colorimetric cell growth inhibition assay, DU-145; conditions: Homo sapiens, DU-145, DU-145; for GI50: GI=growth inhibition, read-out: GI50 DU-145; for CC50: LC=cell killing (cytotoxic effect), read-out: LC50 DU-145; for IC (TGI): TGI=total growth inhibition (cytostatic effect), read-out: TGI DU-145
In short: as §1

IGROV = assay: SRB colorimetric cell growth inhibition assay, IGROV; conditions: Homo sapiens, IGROV; for GI50: GI=growth inhibition, read-out: GI50 IGROV; for CC50: LC=cell killing (cytotoxic effect), read-out: LC50 IGROV; for IC (TGI): TGI=total growth inhibition (cytostatic effect), read-out: TGI IGROV
In short: as §1

SK-MEL-28 = assay: SRB colorimetric cell growth inhibition assay, SK-MEL-28; conditions: Homo sapiens, SK-MEL-28, MEL-28; for GI50: GI=growth inhibition, read-out: GI50 MEL-28; for CC50: LC=cell killing (cytotoxic effect), read-out: LC50 MEL-28; for IC (TGI): TGI=total growth inhibition (cytostatic effect), read-out: TGI MEL-28
In short: as §1

LoVo-Dox = assay: SRB colorimetric cell growth inhibition assay, LoVo-Dox (MDR); conditions: Homo sapiens, LOVO-DOX; for GI50: GI=growth inhibition, read-out: GI50 LOVO-DOX; for CC50: cell killing (cytotoxic effect), read-out: LC50 LOVO-DOX; for IC (TGI): total growth inhibition (cytostatic effect), read-out: TGI LOVO-DOX
In short: as §1

HT-29 = assay: SRB colorimetric cell growth inhibition assay, HT-29; conditions: Homo sapiens, HT-29, HT-29; for GI50: GI=growth inhibition, read-out: GI50 HT-29; for CC50: cell killing (cytotoxic effect), read-out: LC50 HT-29; for IC (TGI): total growth inhibition (cytostatic effect), read-out: TGI HT-29
In short: as §1

[2] = SRB colorimetric cell growth inhibition assay, H-MEC-1; conditions: human, H-MEC-1 cells, H-MEC-1; LC=cell killing (cytotoxic effect); read-out: LC50 H-MEC-1
In short: (§2)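 SRB colorimetric readout of cell growth/viability in 96-well format. Means ± SD from triplicate wells; GI (growth inhibition), TGI (total growth inhibition, cytostatic) and LC (cell killing, cytotoxic) parameters derived.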

H-MEC-1 = assay: as above; conditions: Homo sapiens, HMEC-1, H-MEC-1; for GI50: GI=growth inhibition; for IC (TGI): TGI=total growth inhibition (cytostatic effect), read-out: TGI H-MEC-1
In short: as §2

LoVo = assay: SRB colorimetric cell growth inhibition assay, LoVo; conditions: Homo sapiens, LoVo; for GI50: GI=growth inhibition, read-out: GI50 LOVO; for CC50: cell killing (cytotoxic effect), read-out: LC50 LOVO; for IC (TGI): total growth inhibition (cytostatic effect), read-out: TGI LOVO
In short: as §1

SKOV-3 = assay: SRB colorimetric cell growth inhibition assay, SKOV-3; conditions: Homo sapiens; for GI50: SK-OV-3, SKOV-3, GI=growth inhibition, read-out: GI50 SKOV-3; for CC50 / IC (TGI): SK-OV-3, SKOV-3; for CC50: LC=cell killing (cytotoxic effect), read-out: LC50 SKOV-3; for IC (TGI): TGI=total growth inhibition (cytostatic effect), read-out: TGI SKOV-3
In short: as §2

IGROV-ET = assay: SRB colorimetric cell growth inhibition assay, IGROV-ET (ET-743 resistant); conditions: Homo sapiens, IGROV-ET; for GI50: GI=growth inhibition, read-out: GI50 IGROV-ET; for CC50: LC=cell killing (cytotoxic effect), read-out: LC50 IGROV-ET; for IC (TGI): TGI=total growth inhibition (cytostatic effect), read-out: TGI IGROV-ET
In short: as §1

In the case of `COc1cc(-c2c3n(c4c(=O)oc5cc(OC(=O)[C@@H](N)C[S][Fm])c(OC)cc5c24)CCc2c-3cc(OC)c(OC)c2OC(=O)[C@@H](N)C[S][Fm])ccc1OC(=O)[C@@H](N)C[S][Fm]` [Compound 23], the LC50 (concentration giving 50% net cell killing) [1] is reported as 2.87 µM.

Work on `COc1cc(-c2c3n(c4c(=O)oc5cc(OC(=O)[C@@H](N)Cc6ccccc6)c(OC)cc5c24)CCc2cc(OC(=O)[C@@H](N)Cc4ccccc4)c(OC)cc2-3)ccc1OC(=O)[C@@H](N)Cc1ccccc1` [Compound 115] yielded a GI50 (PANC-1) of 2.47 µM, a CC50 (PANC-1) of 7.78 µM and an IC (TGI) (PANC-1) of 7.78 µM. The GI50 (SK-BR-3) was 1.87 µM, the CC50 (SK-BR-3) was 7.53 µM and the IC (TGI) (SK-BR-3) was 3.75 µM. For the same compound, the GI50 (LNCaP) was 0.67 µM, the CC50 (LNCaP) was 3.87 µM and the IC (TGI) (LNCaP) was 1.67 µM. For the same compound, the GI50 (K-562) was 0.536 µM, the CC50 (K-562) was 7.78 µM and the IC (TGI) (K-562) was 2.47 µM. It also gave a GI50 (A-549) of 1.65 µM, a CC50 (A-549) of 5.87 µM and an IC (TGI) (A-549) of 3.11 µM. It also gave a GI50 (DU-145) of 1.63 µM, a CC50 (DU-145) of 7.78 µM and an IC (TGI) (DU-145) of 4.29 µM. The GI50 (IGROV) was 1.07 µM, the CC50 (IGROV) was 6.26 µM and the IC (TGI) (IGROV) was 2.58 µM. The GI50 (SK-MEL-28) was 1.45 µM, the CC50 (SK-MEL-28) was 4.83 µM and the IC (TGI) (SK-MEL-28) was 2.65 µM. The GI50 (LoVo-Dox) was 1.76 µM, the CC50 (LoVo-Dox) was 7.78 µM and the IC (TGI) (LoVo-Dox) was 4.78 µM. For the same compound, the GI50 (HT-29) was 2.92 µM, the CC50 (HT-29) was 7.78 µM and the IC (TGI) (HT-29) was 6.46 µM. The CC50 [2] was 2.96 µM, the GI50 (H-MEC-1) was 0.213 µM and the IC (TGI) (H-MEC-1) was 0.452 µM. The GI50 (LoVo) was 0.703 µM, the CC50 (LoVo) was 4.41 µM and the IC (TGI) (LoVo) was 1.82 µM. The GI50 (SKOV-3) was 1.1 µM, the CC50 (SKOV-3) was 5.13 µM and the IC (TGI) (SKOV-3) was 2.38 µM. For the same compound, the GI50 (IGROV-ET) was 1.7 µM, the CC50 (IGROV-ET) was 7.78 µM and the IC (TGI) (IGROV-ET) was 5.38 µM.

For `COc1cc2ccn3c(c(-c4ccc(OS(=O)(=O)C(F)(F)F)c(OC)c4)c4c5cc(OC)c(OS(=O)(=O)C(F)(F)F)cc5oc(=O)c43)c2cc1OC` [Compound 126], the GI50 (PANC-1) was 2.19 µM, the CC50 (PANC-1) was 12.9 µM and the IC (TGI) (PANC-1) was 6.57 µM. It also gave a GI50 (SK-BR-3) of 2.11 µM, a CC50 (SK-BR-3) of 1.29 µM and an IC (TGI) (SK-BR-3) of 5.36 µM. The GI50 (LNCaP) was 1.25 µM, the CC50 (LNCaP) was 6.04 µM and the IC (TGI) (LNCaP) was 2.76 µM. The GI50 (K-562) was 2.15 µM, the CC50 (K-562) was 8.69 µM and the IC (TGI) (K-562) was 4.32 µM. The GI50 (A-549) was 2.98 µM, the CC50 (A-549) was 2.25 µM and the IC (TGI) (A-549) was 5.74 µM. The GI50 (DU-145) was 2.53 µM, the CC50 (DU-145) was 12.9 µM and the IC (TGI) (DU-145) was 6.49 µM. The GI50 (IGROV) was 2.26 µM, the CC50 (IGROV) was 12.6 µM and the IC (TGI) (IGROV) was 5.32 µM. The GI50 (SK-MEL-28) was 2.93 µM, the CC50 (SK-MEL-28) was 9.48 µM and the IC (TGI) (SK-MEL-28) was 5.27 µM. For the same compound, the GI50 (LoVo-Dox) was 12.9 µM, the CC50 (LoVo-Dox) was 12.9 µM and the IC (TGI) (LoVo-Dox) was 12.9 µM. It also gave a GI50 (HT-29) of 3 µM, a CC50 (HT-29) of 12.9 µM and an IC (TGI) (HT-29) of 9.22 µM. The CC50 [2] was 6.46 µM, the GI50 (H-MEC-1) was 0.746 µM and the IC (TGI) (H-MEC-1) was 2.25 µM. For the same compound, the GI50 (LoVo) was 2.56 µM, the CC50 (LoVo) was 12.6 µM and the IC (TGI) (LoVo) was 5.68 µM. The GI50 (SKOV-3) was 3.48 µM, the CC50 (SKOV-3) was 12.9 µM and the IC (TGI) (SKOV-3) was 6.98 µM. For the same compound, the GI50 (IGROV-ET) was 3.88 µM, the CC50 (IGROV-ET) was 12.9 µM and the IC (TGI) (IGROV-ET) was 7.87 µM.
